The values that follow come from publication PMC8698299, “Targeting Mycobacterial F-ATP Synthase C-Terminal α Subunit Interaction Motif on Rotary Subunit γ” (Antibiotics, 2021).

This assay has as its target T1, F-ATP synthase (subunit γ, site proposed by docking) (Mycolicibacterium smegmatis, UniProt A0R201).
T1 construct: gene atpG; Recombinant M. smegmatis WT F-ATP synthase, purified and reconstituted into proteoliposomes; with other F-ATP synthase subunits (α3:β3:γ:δ:ε:a:b:b’:c9), in particular subunit α
Briefly: ATP synthesis by reconstituted recombinant MsF-ATP synthase, continuous luciferase assay (also IMV ATP synthesis, IC50 […]). In kind it is biochemical.

What is called inhibition is how much of the control response was suppressed.

T1 sequence (A0R201 2-307): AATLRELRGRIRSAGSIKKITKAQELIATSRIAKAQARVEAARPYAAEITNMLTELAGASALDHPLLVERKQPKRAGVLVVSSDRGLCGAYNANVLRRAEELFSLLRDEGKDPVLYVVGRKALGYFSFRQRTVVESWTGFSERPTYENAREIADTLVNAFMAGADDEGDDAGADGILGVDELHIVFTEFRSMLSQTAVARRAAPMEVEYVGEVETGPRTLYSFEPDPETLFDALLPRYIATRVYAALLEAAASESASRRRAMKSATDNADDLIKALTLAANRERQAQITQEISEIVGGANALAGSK

With `COc1cc(NC(=O)C2=C(C)OCCS2)c(Cl)cc1C(=O)NCCCN1CCCC1=O` [AlMF1, N-(2-chloro-5-methoxy-4-((3-(2-oxopyrrolidin-1-yl)propyl)carbamoyl)phenyl)-2-methyl-5,6-dihydro-1,4-oxathiine-3-carboxamide], the inhibition at 50 µM was 71%.
